Each structure is given as a SMILES string.

Format in all cases: cell-based
In one assay the target is T1, human opioid δ receptor (Homo sapiens, UniProt P41143).
T1 construct: host or cells: CHO cells
Briefly: Opioid receptor function test (agonist activity, Lance Ultra cAMP kit), δ receptor. The settings on record: for Emax: maximum reaction relative to control drug SNC 80 taken as 100%. An excerpt: (§1) Opioid Receptor Function Test
(§2) Functional activity of the compound provided by the present invention on μ, δ, and κ opioid receptors was examined.
(§3) Method: Using a Lance Ultra cAMP kit (Perkin Elmer), the functional activity was examined by a predetermined method. In evaluation of agonist activity, CHO cells expressing each of human opioid receptors (δ, μ, and κ: accession numbers and catalog numbers are described below) were reacted with a test compound in an assay buffer (1× HBSS, […], pH 7.4, […] isobutylmethylxanthine (IBMX), 7.5% BSA) in the presence of 10 μM forskolin for 30 minutes. Subsequently, a cAMP detection reagent in the kit was added. One hour later, time-resolved fluorescence measurement was performed using an EnVision plate reader (Perkin Elmer). The test compound and each control drug (δ: SNC 80, μ: DAMGO, κ: U-69593) were evaluated in a concentration range of 10^−12 to 10^−5 M. A dose reaction curve of the test compound was determined from a fluorescence value at 665 nm, and an EC50 value and an Emax value were calculated. The Emax value was determined as a ratio of a maximum reaction of the test compound when a maximum reaction of each control drug was taken as 100%.

In another assay the target is T2, human opioid κ receptor (Homo sapiens, UniProt P41145).
T2 construct: host or cells: CHO cells
T2 sequence (P41145 whole entry): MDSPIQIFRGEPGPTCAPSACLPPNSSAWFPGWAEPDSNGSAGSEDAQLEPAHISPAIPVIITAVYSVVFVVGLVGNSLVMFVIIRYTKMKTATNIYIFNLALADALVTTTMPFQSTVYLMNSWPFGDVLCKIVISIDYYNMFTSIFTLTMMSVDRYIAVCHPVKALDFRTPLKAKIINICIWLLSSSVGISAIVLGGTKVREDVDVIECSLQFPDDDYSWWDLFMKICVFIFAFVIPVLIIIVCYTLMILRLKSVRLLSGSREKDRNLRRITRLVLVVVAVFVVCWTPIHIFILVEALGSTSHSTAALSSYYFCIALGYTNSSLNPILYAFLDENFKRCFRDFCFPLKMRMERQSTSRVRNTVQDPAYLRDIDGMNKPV
Briefly: Opioid receptor function test (agonist activity, Lance Ultra cAMP kit), κ receptor. The settings on record: for Emax: maximum reaction relative to control drug U-69593 taken as 100%.
Source text: as §1, §2, §3

A further assay addresses T3, human opioid μ receptor (Homo sapiens, UniProt P35372).
T3 construct: host or cells: CHO cells
Briefly: Opioid receptor function test (agonist activity, Lance Ultra cAMP kit), μ receptor. The settings on record: for Emax: maximum reaction relative to control drug DAMGO taken as 100%.
Source text: as §1, §2, §3

T1 sequence (P41143 whole entry): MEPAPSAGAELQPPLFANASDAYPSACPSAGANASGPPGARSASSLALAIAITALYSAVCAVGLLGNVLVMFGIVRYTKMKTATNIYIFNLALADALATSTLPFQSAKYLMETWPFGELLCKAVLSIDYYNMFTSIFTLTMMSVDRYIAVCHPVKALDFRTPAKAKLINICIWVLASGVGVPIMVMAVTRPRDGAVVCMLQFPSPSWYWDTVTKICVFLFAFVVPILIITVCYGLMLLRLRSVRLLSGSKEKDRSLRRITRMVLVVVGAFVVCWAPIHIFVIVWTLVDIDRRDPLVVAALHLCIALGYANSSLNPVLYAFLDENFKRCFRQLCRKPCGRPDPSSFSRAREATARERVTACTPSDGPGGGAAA
T3 sequence (P35372 whole entry): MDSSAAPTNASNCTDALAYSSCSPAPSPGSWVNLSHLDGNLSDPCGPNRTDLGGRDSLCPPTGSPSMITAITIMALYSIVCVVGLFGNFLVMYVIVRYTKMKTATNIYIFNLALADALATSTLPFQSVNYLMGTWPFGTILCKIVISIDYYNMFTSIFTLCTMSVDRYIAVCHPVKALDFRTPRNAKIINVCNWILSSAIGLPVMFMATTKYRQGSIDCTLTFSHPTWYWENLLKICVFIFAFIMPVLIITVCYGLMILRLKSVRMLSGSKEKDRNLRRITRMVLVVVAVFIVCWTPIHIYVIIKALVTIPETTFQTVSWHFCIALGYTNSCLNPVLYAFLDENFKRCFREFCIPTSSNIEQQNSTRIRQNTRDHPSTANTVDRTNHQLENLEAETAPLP

At human opioid δ receptor, `Cc1nn(-c2ccncc2)c2c1C[C@@]1(O)[C@H]3Cc4ccc(O)cc4[C@@]1(CCN3CC1CC1)C2` [Compound 28, (6R,6aS,11aR)-14-(cyclopropylmethyl)-8-methyl-10-(pyridin-4-yl)-5,6,10,11-tetrahydro-6,11a-(epiminoethano)naphtho[2,1-f]indazole-2,6a(7H)-diol] had an EC50 of 0.33 nM and an Emax of 101%. Further, at human opioid κ receptor, a half-maximal effect (EC50) was put at 58 nM and the Emax came out at 15%.
Take `Cc1nn(C2CCSCC2)c2c1C[C@@]1(O)[C@H]3Cc4ccc(O)cc4[C@@]1(CCN3CC1CC1)C2` [Compound 89, (6R,6aS,11aR)-14-(cyclopropylmethyl)-8-methyl-10-(tetrahydro-2H-thiopyran-4-yl)-5,6,10,11-tetrahydro-6,11a-(epiminoethano)naphtho[2,1-f]indazole-2,6a(7H)-diol]: at human opioid δ receptor, a half-maximal response (EC50) required 0.069 nM and the Emax worked out at 112%.
For `Cc1c2c(nn1CC1CCCCC1)C[C@]13CCN(CC4CC4)[C@H](Cc4ccc(O)cc41)[C@]3(O)C2` [Compound 42, (6R,6aS,11aR)-9-(cyclohexylmethyl)-14-(cyclopropylmethyl)-8-methyl-5,6,9,11-tetrahydro-6,11a-(epiminoethano)naphtho[2,1-f]indazole-2,6a(7H)-diol], in that order: 1 nM and 90%.
For `Cc1c2c(nn1C1CCCCC1)C[C@]13CCN(CC4CC4)[C@H](Cc4ccc(O)cc41)[C@]3(O)C2` [Compound 33, (6R,6aS,11aR)-9-cyclohexyl-14-(cyclopropylmethyl)-8-methyl-5,6,9,11-tetrahydro-6,11a-(epiminoethano)naphtho[2,1-f]indazole-2,6a(7H)-diol], on human opioid δ receptor, the EC50 was 0.14 nM and the Emax worked out at 108%. At human opioid κ receptor, this compound showed an EC50 of 44 nM and an Emax of 13%.
On human opioid δ receptor, `Cc1nn(C2CCOCC2)c2c1C[C@@]1(O)[C@H]3Cc4ccc(O)cc4[C@@]1(CCN3CC1CC1)C2` [Compound 88, (6R,6aS,11aR)-14-(cyclopropylmethyl)-8-methyl-10-(tetrahydro-2H-pyran-4-yl)-5,6,10,11-tetrahydro-6,11a-(epiminoethano)naphtho[2,1-f]indazole-2,6a(7H)-diol] registered an EC50 of 0.086 nM and an Emax of 113%.
For `Cc1nn(C(=O)c2ccccc2)c2c1C[C@@]1(O)[C@H]3Cc4ccc(O)cc4[C@@]1(CCN3CC1CC1)C2` [Compound 36, ((6R,6aS,11aR)-14-(cyclopropylmethyl)-2,6a-dihydroxy-8-methyl-6,6a,7,11-tetrahydro-6,11a-(epiminoethano)naphtho[2,1-f]indazol-10(5H)-yl)(phenyl)methanone], in that order: 3.4 nM and 65%.
On human opioid δ receptor, `Cc1c2c(nn1C1CCSCC1)C[C@]13CCN(CC4CC4)[C@H](Cc4ccc(O)cc41)[C@]3(O)C2` [Compound 90, (6R,6aS,11aR)-14-(cyclopropylmethyl)-8-methyl-9-(tetrahydro-2H-thiopyran-4-yl)-5,6,9,11-tetrahydro-6,11a-(epiminoethano)naphtho[2,1-f]indazole-2,6a(7H)-diol] yielded a half-maximal effective concentration (EC50) of 0.092 nM and an Emax of 116%. On human opioid κ receptor, this compound gave an EC50 of 8.1 nM and an Emax of 15%.
On human opioid δ receptor, `Cc1nn(C2CCC2)c2c1C[C@@]1(O)[C@H]3Cc4ccc(O)cc4[C@@]1(CCN3CC1CC1)C2` [Compound 84, (6R,6aS,11aR)-10-cyclobutyl-14-(cyclopropylmethyl)-8-methyl-5,6,10,11-tetrahydro-6,11a-(epiminoethano)naphtho[2,1-f]indazole-2,6a(7H)-diol] showed an EC50 of 0.34 nM and an Emax of 95%.
Take `Cc1c2c(nn1C1CC1)C[C@]13CCN(CC4CC4)[C@H](Cc4ccc(O)cc41)[C@]3(O)C2` [Compound 83, (6R,6aS,11aR)-9-cyclopropyl-14-(cyclopropylmethyl)-8-methyl-5,6,9,11-tetrahydro-6,11a-(epiminoethano)naphtho[2,1-f]indazole-2,6a(7H)-diol]: the EC50 came to 0.13 nM on human opioid δ receptor, 11 nM at human opioid μ receptor and 50 nM at human opioid κ receptor. The Emax was 99% at human opioid δ receptor, 16% on human opioid μ receptor and 30% at human opioid κ receptor.
Take `Cc1c2c(nn1C1CCN(C)CC1)C[C@]13CCN(CC4CC4)[C@H](Cc4ccc(O)cc41)[C@]3(O)C2` [Compound 92, (6R,6aS,11aR)-14-(cyclopropylmethyl)-8-methyl-9-(1-methylpiperidin-4-yl)-5,6,9,11-tetrahydro-6,11a-(epiminoethano)naphtho[2,1-f]indazole-2,6a(7H)-diol]: the values for the EC50 on human opioid δ receptor, on human opioid μ receptor and at human opioid κ receptor were 0.51 nM, 52 nM and 16 nM, respectively. For the same compound, the Emax worked out at 103% at human opioid δ receptor, 17% at human opioid μ receptor and 20% on human opioid κ receptor.
With `Cc1c2c(nn1CC1CC1)C[C@]13CCN(CC4CC4)[C@H](Cc4ccc(O)cc41)[C@]3(O)C2` [Compound 46, (6R,6aS,11aR)-9,14-bis(cyclopropylmethyl)-8-methyl-5,6,9,11-tetrahydro-6,11a-(epiminoethano)naphtho[2,1-f]indazole-2,6a(7H)-diol], on human opioid δ receptor, the midpoint of the response, the EC50, lay at 0.17 nM and the Emax was 105%.
For `Cc1nn(C2CC2)c2c1C[C@@]1(O)[C@H]3Cc4ccc(O)cc4[C@@]1(CCN3CC1CC1)C2` [Compound 82, (6R,6aS,11aR)-10-cyclopropyl-14-(cyclopropylmethyl)-8-methyl-5,6,10,11-tetrahydro-6,11a-(epiminoethano)naphtho[2,1-f]indazole-2,6a(7H)-diol], in that order: 0.93 nM and 39%.
For `Cc1nn(C2CCCC2)c2c1C[C@@]1(O)[C@H]3Cc4ccc(O)cc4[C@@]1(CCN3CC1CC1)C2` [Compound 86, (6R,6aS,11aR)-10-cyclopentyl-14-(cyclopropylmethyl)-8-methyl-5,6,10,11-tetrahydro-6,11a-(epiminoethano)naphtho[2,1-f]indazole-2,6a(7H)-diol], in that order: 0.12 nM and 101%.
In the same order, the values of `Cc1nn(-c2ccccn2)c2c1C[C@@]1(O)[C@H]3Cc4ccc(O)cc4[C@@]1(CCN3CC1CC1)C2` [Compound 27, (6R,6aS,11aR)-14-(cyclopropylmethyl)-8-methyl-10-(pyridin-2-yl)-5,6,10,11-tetrahydro-6,11a-(epiminoethano)naphtho[2,1-f]indazole-2,6a(7H)-diol] are 0.83 nM and 51%.
For `Cc1nn(-c2nccs2)c2c1C[C@@]1(O)[C@H]3Cc4ccc(O)cc4[C@@]1(CCN3CC1CC1)C2` [Compound 51, (6R,6aS,11aR)-14-(cyclopropylmethyl)-8-methyl-10-(thiazol-2-yl)-5,6,10,11-tetrahydro-6,11a-(epiminoethano)naphtho[2,1-f]indazole-2,6a(7H)-diol], on human opioid δ receptor, the midpoint of the response, the EC50, lay at 0.94 nM and the Emax was 54%.
In the same order, the values of `Cc1nn(-c2cccnc2)c2c1C[C@@]1(O)[C@H]3Cc4ccc(O)cc4[C@@]1(CCN3CC1CC1)C2` [Compound 49, (6R,6aS,11aR)-14-(cyclopropylmethyl)-8-methyl-10-(pyridin-3-yl)-5,6,10,11-tetrahydro-6,11a-(epiminoethano)naphtho[2,1-f]indazole-2,6a(7H)-diol] are 0.5 nM and 73%.
In the same order, the values of `Cc1[nH]nc2c1C[C@@]1(O)[C@H]3Cc4ccc(O)cc4[C@@]1(CCN3CC1CC1)C2` [34, 35] are 1.3 nM and 42%.
On human opioid δ receptor, `Cc1nn(CC2CC2)c2c1C[C@@]1(O)[C@H]3Cc4ccc(O)cc4[C@@]1(CCN3CC1CC1)C2` [Compound 45, (6R,6aS,11aR)-10,14-bis(cyclopropylmethyl)-8-methyl-5,6,10,11-tetrahydro-6,11a-(epiminoethano)naphtho[2,1-f]indazole-2,6a(7H)-diol] had an EC50 of 0.75 nM and an Emax of 72%.
For `O=c1c2c([nH]n1-c1ccccc1)C[C@]13CCN(CC4CC4)[C@H](Cc4ccc(O)cc41)[C@]3(O)C2` [Compound 68, (6R,6aS,11aR)-14-(cyclopropylmethyl)-2,6a-dihydroxy-9-phenyl-6,6a,7,9,10,11-hexahydro-6,11a-(epiminoethano)naphtho[2,1-f]indazol-8(5H)-one], in that order: 1.4 nM and 100%.
For `Cc1nn(-c2ccccc2)c2c1C[C@@]1(O)[C@H]3Cc4ccc(O)cc4[C@@]1(CCN3CC1CC1)C2` [Compound 21, (6R,6aS,11aR)-14-(cyclopropylmethyl) methyl-10-phenyl-5,6,10,11-tetrahydro-6,11a-(epiminoethano)naphtho[2,1-f]indazole-2,6a(7H)-diol], in that order: 0.76 nM and 81%.
In the same order, the values of `Cc1nn(C2CCCCC2)c2c1C[C@@]1(O)[C@H]3Cc4ccc(O)cc4[C@@]1(CCN3CC1CC1)C2` [Compound 32, (6R,6aS,11aR)-10-cyclohexyl-14-(cyclopropylmethyl)-8-methyl-5,6,10,11-tetrahydro-6,11a-(epiminoethano)naphtho[2,1-f]indazole-2,6a(7H)-diol] are 0.089 nM and 111%.
